Experimental findings from PubChem BioAssay (NCI) are described below.

Molecules are shown by their SMILES. Several values for one entry are separate records, joined by “and”; a condition that tells them apart may be missing. Identical values can stand only once.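 A five-concentration, 48-hour dose response in 96-well plates underlies each endpoint, interpolated linearly between surrounding concentrations. At the GI50, growth is halved. At the TGI there is no net growth.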

Among the test systems are CAKI-1 renal; DU-145 prostate; LOX IMVI melanoma; OVCAR-3 ovarian; OVCAR-4 ovarian; PC-3 prostate; SF-268 CNS; SF-295 CNS; SK-MEL-2 melanoma; SNB-19 CNS.
What all share (test): growth of human tumour cells (NCI), 48 h

Consider `O=C1/C(=C/c2ccc(C(F)(F)F)cc2)COc2ccc(O)cc21`, for which the GI50 with CAKI-1 renal was 1740 nM; in the experiment on DU-145 prostate, 3230 nM; in the experiment on LOX IMVI melanoma, 1690 nM; in the experiment with OVCAR-3 ovarian, 1700 nM; in the experiment on OVCAR-4 ovarian it was 3400 nM; in the experiment on PC-3 prostate, 1890 nM. Further, the GI50 is 2750 nM with SF-268 CNS, 12100 nM in the experiment on SF-295 CNS, 9430 nM with SK-MEL-2 melanoma and 1910 nM with SNB-19 CNS. Besides, the TGI turned out to be 3850 nM in the experiment on CAKI-1 renal; 12000 nM in the experiment on DU-145 prostate; 3110 nM with LOX IMVI melanoma; 3090 nM with OVCAR-3 ovarian; 13000 nM in the experiment on OVCAR-4 ovarian; 4170 nM in the experiment on PC-3 prostate. For the same compound, the TGI in the experiment on SF-268 CNS was determined as 13600 nM; in the experiment on SF-295 CNS, 24900 nM; in the experiment on SK-MEL-2 melanoma, 21900 nM; with SNB-19 CNS, 3980 nM.

Consider `O=C(Nn1c2c(sc1=NC1CC1)C(=O)c1ccccc1C2=O)c1cc2ccc1CCc1ccc(cc1)CC2`, for which the GI50 in the experiment with CAKI-1 renal was 2480 nM; in the experiment on DU-145 prostate, 1850 nM; in the experiment on LOX IMVI melanoma it was 966 nM; in the experiment with OVCAR-3 ovarian, 1530 nM; in the experiment on OVCAR-4 ovarian it was 1610 nM; with PC-3 prostate, 1620 nM. Besides, the GI50 in the experiment on SF-268 CNS was 2540 nM; in the experiment with SF-295 CNS it was 3550 nM; in the experiment on SK-MEL-2 melanoma, 2470 nM; in the experiment on SNB-19 CNS, 3090 nM. Further, the TGI stood at 14900 nM in the experiment on CAKI-1 renal; 3430 nM with DU-145 prostate; 2620 nM in the experiment with LOX IMVI melanoma; 4420 nM in the experiment with OVCAR-3 ovarian; 4580 nM in the experiment on OVCAR-4 ovarian; 10700 nM in the experiment with PC-3 prostate. Moreover, the TGI with SF-268 CNS came out at 11000 nM; in the experiment with SF-295 CNS, 12700 nM; in the experiment with SK-MEL-2 melanoma it was 7250 nM; with SNB-19 CNS, 11700 nM.

On to `CCOC(=O)c1cn2ncnc(Oc3ccc(NC(=O)NCCN(CC)CC)c(Cl)c3)c2c1C`, for which the GI50 with CAKI-1 renal is 1900 nM; in the experiment with DU-145 prostate it was 7100 nM; with LOX IMVI melanoma it was 1850 nM; in the experiment with OVCAR-3 ovarian it was 8120 nM; with OVCAR-4 ovarian, 12200 nM; in the experiment with PC-3 prostate, 3220 nM. In addition, the GI50 with SF-268 CNS is 2280 nM; in the experiment with SF-295 CNS, 2140 nM; in the experiment on SK-MEL-2 melanoma, 2360 nM; in the experiment on SNB-19 CNS it was 10500 nM. The TGI in the experiment on CAKI-1 renal was determined as 3820 nM; in the experiment with DU-145 prostate, 55100 nM; in the experiment with LOX IMVI melanoma, 3550 nM; with OVCAR-3 ovarian it was 35800 nM; in the experiment on OVCAR-4 ovarian it was 45500 nM; in the experiment with PC-3 prostate, 15000 nM. Besides, the TGI in the experiment on SF-268 CNS is 6580 nM; with SF-295 CNS, 4710 nM; in the experiment on SK-MEL-2 melanoma it was 5380 nM; in the experiment with SNB-19 CNS it was 28100 nM.

With `C[C@@H]1CCC2[C@@H](C)[C@H](OC(=O)CCC(=O)NCCNC(=O)Cc3cc(=O)oc4cc(N(C)C)ccc34)O[C@@H]3O[C@]4(C)CC[C@@H]1C23OO4` (some centres undefined), the GI50 in the experiment with CAKI-1 renal is 2640 nM; with DU-145 prostate it was 10300 nM; in the experiment on LOX IMVI melanoma, 566 nM; in the experiment with OVCAR-3 ovarian, 629 nM; in the experiment on OVCAR-4 ovarian, 11400 nM; in the experiment on PC-3 prostate it was 189 nM. Moreover, the GI50 is 5250 nM in the experiment on SF-268 CNS, 2040 nM with SF-295 CNS, 5400 nM in the experiment with SK-MEL-2 melanoma and 10700 nM in the experiment on SNB-19 CNS. The TGI in the experiment with CAKI-1 renal is > 25600 nM; with DU-145 prostate, 24000 nM; in the experiment with LOX IMVI melanoma, 2310 nM; with OVCAR-3 ovarian, 18100 nM; in the experiment with OVCAR-4 ovarian it was > 100000 nM; with PC-3 prostate, > 100000 nM. Also, the TGI in the experiment with SF-268 CNS was > 65200 nM; in the experiment with SF-295 CNS, > 100000 nM; with SK-MEL-2 melanoma it was > 43700 nM; with SNB-19 CNS, > 100000 nM.

On to `CC1CCC(C#N)(NOC2=NCCN2)CC1` (centres undefined), for which the GI50 is 16200 nM with CAKI-1 renal; 39900 nM with DU-145 prostate; 5330 nM in the experiment with LOX IMVI melanoma; 28900 nM in the experiment on OVCAR-3 ovarian; 47200 nM with OVCAR-4 ovarian; > 100000 nM in the experiment with PC-3 prostate. The GI50 in the experiment with SF-268 CNS is 63100 nM; in the experiment with SF-295 CNS, 23600 nM; in the experiment with SK-MEL-2 melanoma, > 100000 nM; with SNB-19 CNS, > 100000 nM. Further, the TGI in the experiment with CAKI-1 renal is 33800 nM; in the experiment with DU-145 prostate, > 100000 nM; with LOX IMVI melanoma, 20200 nM; in the experiment on OVCAR-3 ovarian, > 100000 nM; with OVCAR-4 ovarian, > 100000 nM; in the experiment on PC-3 prostate it was > 100000 nM. The TGI in the experiment with SF-268 CNS is > 100000 nM; in the experiment with SF-295 CNS, 93400 nM; in the experiment with SK-MEL-2 melanoma it was > 100000 nM; with SNB-19 CNS it was > 100000 nM.

As to `CN1CCN(c2ccc([N+](=O)[O-])c3no[n+]([O-])c23)CC1`, the GI50 with CAKI-1 renal is 137 nM; in the experiment on DU-145 prostate, 302 nM; in the experiment with LOX IMVI melanoma, 157 nM; with OVCAR-3 ovarian, 241 nM; in the experiment with OVCAR-4 ovarian, 444 nM; in the experiment with PC-3 prostate, 412 nM. Besides, the GI50 in the experiment on SF-268 CNS is 198 nM; with SF-295 CNS, 292 nM; in the experiment with SK-MEL-2 melanoma, 468 nM. Also, the TGI is 1600 nM and 920 nM in the experiment on CAKI-1 renal; 1990 nM and 1280 nM with DU-145 prostate; 1140 nM and 612 nM with LOX IMVI melanoma; 1290 nM and 753 nM with OVCAR-3 ovarian; 2540 nM and 1800 nM in the experiment with OVCAR-4 ovarian; 2210 nM and 1940 nM in the experiment on PC-3 prostate. The TGI in the experiment with SF-268 CNS is 680 nM and 1120 nM; in the experiment on SF-295 CNS, 1820 nM and 1590 nM; with SK-MEL-2 melanoma it was 3010 nM and 1660 nM; in the experiment on SNB-19 CNS, 4820 nM and 2240 nM.

As for `Cc1ccc2oc(=O)cc(C3c4ccc([nH]4)C(c4cc(=O)oc5ccc(C)cc45)c4ccc([nH]4)C(c4cc(=O)oc5ccc(C)cc45)c4ccc([nH]4)C(c4cc(=O)oc5ccc(C)cc45)c4ccc3[nH]4)c2c1` (centres undefined), the GI50 in the experiment on CAKI-1 renal was 80.6 nM; in the experiment with DU-145 prostate, 39.1 nM; with LOX IMVI melanoma, 36.5 nM; in the experiment on OVCAR-3 ovarian, 22.5 nM; in the experiment on OVCAR-4 ovarian it was 104 nM; in the experiment on PC-3 prostate it was 36.6 nM. The GI50 in the experiment on SF-268 CNS is 56.1 nM; in the experiment with SF-295 CNS it was 27 nM; in the experiment with SK-MEL-2 melanoma, 98.3 nM; in the experiment with SNB-19 CNS it was 39.4 nM. In addition, the TGI was 1790 nM with CAKI-1 renal; 1800 nM in the experiment with DU-145 prostate; 1230 nM in the experiment on LOX IMVI melanoma; 53.3 nM in the experiment on OVCAR-3 ovarian; 3810 nM in the experiment on OVCAR-4 ovarian; 1940 nM with PC-3 prostate. The TGI in the experiment on SF-268 CNS was found to be 1470 nM; in the experiment with SF-295 CNS, 284 nM; with SK-MEL-2 melanoma, 1020 nM; with SNB-19 CNS, 3450 nM.
